Results taken from patent US20110212978A1 (AstraZeneca AB, priority 2005, published 2011).

Columns and labels:
MX-1 tumour xenografts = experiment: MX-1 human tumour xenograft growth in female athymic mice; format: in vivo; details: female nude mice; for Day 14 Median tumour volume / Day 14 geometric mean tumour volume: Day 14 after implantation (randomisation, start of treatment), ZD6474 25 mg/kg/day p.o., pemetrexed 75 mg/kg i.p.; for Day 28 Median tumour volume / Day 28 geometric mean tumour volume: ZD6474 25 mg/kg/day p.o. once daily, pemetrexed 75 mg/kg i.p. once daily days 14-18 and 21-25
Method: Tumour implantation procedures were performed on mice of at least 5 weeks of age. Human tumour xenografts were grown in female athymic (nu/nu genotype, Swiss) mice. MX-1 tumour fragments were implanted into athymic mice and allowed to grow to 0.7-1 cm^3 to provide donor tumour tissue. The donor tumours were surgically excised and smaller tumour fragments (20-30 mg) were implanted subcutaneously (s.c.) in the right flanks of the experimental athymic mice. When the mean tumour volume reached 0.1-0.3 cm^3, randomisation was carried out. […] An additional group of animals received a combination of pemetrexed and ZD6474, using the same doses and schedules as used for single agent treatment.
Tumour volumes were assessed at least twice weekly by bilateral Vernier caliper measurement. Growth inhibition from the start of treatment was assessed by comparison of the differences in tumour volume between control and treated groups.
Experiments were conducted on female athymic mice (Swiss nu/nu genotype, >6 weeks of age). MX-1 human tumour xenografts were established in mice from tumour cell implants. The donor tumours were surgically excised when they reached a volume of 0.7-1 cm^3, divided into fragments and frozen until further use. At the start of the experiment, fragments (approximately 30 mg) were thawed and implanted (subcutaneously in the dorsal flank) in the experimental animals. Tumour volumes were assessed at least twice weekly by bilateral Vernier calliper measurements. Mice were randomised into treatment groups when the tumour volume reached 0.1-0.2 cm^3. […] An additional group of animals received a combination of ZD6474 and pemetrexed, using the same doses and schedules as used for single agent treatment.
Tumour growth inhibition (TGI) from the start of treatment was assessed by comparison of the differences in tumour volume between control and treated groups.

tumour growth = details: range of models, once-daily oral administration; cited from earlier work
VEGF RTK = details: cited from earlier work

Compound	Day 14 Median tumour volume (MX-1 tumour xenografts) [cm^3]	Day 14 geometric mean tumour volume (MX-1 tumour xenografts) [cm^3]	Day 28 Median tumour volume (MX-1 tumour xenografts) [cm^3]	Day 28 geometric mean tumour volume (MX-1 tumour xenografts) [cm^3]	Anti-tumour activity (tumour growth)	Inhibition of VEGF RTK (VEGF RTK)
COc1cc2c(Nc3ccc(Br)cc3F)ncnc2cc1OCC1CCN(C)CC1 [ZD6474, 4-(4-bromo-2-fluoroanilino)-6-methoxy-7-(1-methylpiperidin-4-ylmethoxy)quinazoline]	0.148	0.148	0.967	0.702	broad-spectrum anti-tumour activity	potent inhibitor
Nc1nc2[nH]cc(CCc3ccc(C(=O)N[C@@H](CCC(=O)[O-])C(=O)[O-])cc3)c2c(=O)[nH]1.[Na+].[Na+] [pemetrexed, L-Glutamic acid, N-[4-[2-(2-amino-4,7-dihydro-4-oxo-1H-pyffolo[2,3-d]pyrimidin-5-yl)ethyl]benzoyl]-, disodium salt, hetpahydrate]	0.147	0.146	0.794	0.751	–	–
